Assay results taken from BindingDB's records for patent US12338253 (Applied Pharmaceutical Science, 2025).

Molecular target: Proto-oncogene tyrosine-protein kinase receptor Ret [V804M] (Human, UniProt P07949, V804M)
Assay: Kinase Activity Assay

Proto-oncogene tyrosine-protein kinase receptor Ret [V804M], sequence (P07949 29-1114 V804M limits assumed): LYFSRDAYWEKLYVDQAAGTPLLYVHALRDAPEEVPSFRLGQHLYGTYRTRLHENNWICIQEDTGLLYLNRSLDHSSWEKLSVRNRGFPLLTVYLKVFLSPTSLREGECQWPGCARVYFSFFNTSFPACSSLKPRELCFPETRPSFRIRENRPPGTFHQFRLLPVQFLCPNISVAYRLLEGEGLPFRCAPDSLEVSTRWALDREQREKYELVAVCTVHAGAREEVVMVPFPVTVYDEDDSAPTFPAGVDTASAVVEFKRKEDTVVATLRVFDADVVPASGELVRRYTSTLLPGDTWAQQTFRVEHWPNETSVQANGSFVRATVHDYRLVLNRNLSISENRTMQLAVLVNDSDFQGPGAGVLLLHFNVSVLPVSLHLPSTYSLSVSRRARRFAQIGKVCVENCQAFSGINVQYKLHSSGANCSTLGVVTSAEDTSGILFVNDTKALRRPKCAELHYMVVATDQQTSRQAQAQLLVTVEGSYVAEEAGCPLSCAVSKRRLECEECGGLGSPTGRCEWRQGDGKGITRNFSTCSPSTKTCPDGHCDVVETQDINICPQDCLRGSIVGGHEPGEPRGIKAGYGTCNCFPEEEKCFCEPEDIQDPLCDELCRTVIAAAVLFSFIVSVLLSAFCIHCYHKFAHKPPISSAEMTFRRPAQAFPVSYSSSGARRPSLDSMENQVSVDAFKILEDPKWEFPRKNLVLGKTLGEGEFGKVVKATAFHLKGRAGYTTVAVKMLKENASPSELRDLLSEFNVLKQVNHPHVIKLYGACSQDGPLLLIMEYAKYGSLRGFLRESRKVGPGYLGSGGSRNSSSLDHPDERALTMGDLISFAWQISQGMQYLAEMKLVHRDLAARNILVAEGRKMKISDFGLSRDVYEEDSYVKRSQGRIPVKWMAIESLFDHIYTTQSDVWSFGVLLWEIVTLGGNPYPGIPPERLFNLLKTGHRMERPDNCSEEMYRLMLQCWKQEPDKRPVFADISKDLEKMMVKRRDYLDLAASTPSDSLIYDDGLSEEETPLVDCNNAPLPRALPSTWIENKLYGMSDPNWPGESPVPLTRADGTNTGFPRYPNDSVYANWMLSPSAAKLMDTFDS

## COc1ccc(CN2C3CC2CN(c2ccc(-c4cc(OC[C@@H]5CNCCO5)cn5nc6[nH]ncc6c45)cn2)C3)cn1 [US12338253, Compound 17]
  IC50: 0.1 nM
